The source of these data is ChEMBL document CHEMBL1201862, “PubChem BioAssay data set” (2004).

Test systems include HOP-92; COLO 205; DU-145; SNB-19; KM12; SK-OV-3; HCT-15; MOLT-4; CAKI-1; NCI-H460; UACC-62; U-251; NCI-H522; A549; SK-MEL-5; RPMI-8226; HOP-62; MDA-N; HCC 2998; SR.
Test in all cases: inhibition of tumour cell growth, NCI panel, 48 h

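Exposure lasted 48 hours, with cells grown in 96-well plates and compounds tested at five concentrations. Abbreviation: GI50, concentration required for 50% inhibition of growth.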 Activity calls are given as the source filed them. Rule as the data show it: active = GI50 up to about 1.1 µM and inactive = higher. Where only a bound is given, the exact number is not on record here.

Regarding `CC1=NNC(=O)C1C1(C(=O)O)CC(c2c[nH]c3ccccc23)=NC(=S)N1` (centres undefined), the GI50 in the assay on HOP-92 was 22.3 µM (inactive); in the assay on COLO 205, 17.1 µM (inactive); in the assay with DU-145 it was 35.6 µM (inactive); in the assay with SNB-19, 29.3 µM (inactive); in the assay on KM12 it was 15.2 µM (inactive); in the assay on SK-OV-3, 32.1 µM (inactive). Further, the GI50 in the assay on HCT-15 was 42.6 µM; in the assay with MOLT-4, 19.4 µM (inactive); in the assay on CAKI-1 it was 43.5 µM (inactive); in the assay with NCI-H460, 22.8 µM (inactive); in the assay with UACC-62, 41.2 µM (inactive); with U-251 it was 26 µM (inactive). Besides, the GI50 in the assay with NCI-H522 was 20 µM (inactive); in the assay with A549 it was 37.7 µM (inactive); in the assay on SK-MEL-5, 14.4 µM (inactive); in the assay on RPMI-8226 it was 24.9 µM (inactive); in the assay with HOP-62 it was 20 µM (inactive); with MDA-N, 37.3 µM (inactive).
As for `CC1(C)CCC2(C(=O)OC3OC(CO)C(O)C(O)C3O)CCC3(C)C(=CCC4C5(C)CCC(OC6OC(CO)C(O)C(O)C6O)C(C)(C)C5CCC43C)C2C1` (centres undefined), the GI50 with HOP-92 is 7.74 µM (inactive); with COLO 205, 8.04 µM (inactive); with DU-145, > 25 µM (inactive); with HCC 2998, 4.01 µM (inactive); with SNB-19, 8.32 µM (inactive); with KM12, 6.5 µM (inactive). The GI50 with SK-OV-3 is > 25 µM (inactive); with HCT-15, over 25 µM; in the assay with MOLT-4 it was 7.26 µM (inactive); with CAKI-1 it was > 25 µM (inactive); with NCI-H460, 6.59 µM (inactive); in the assay on UACC-62 it was 8.67 µM (inactive). Besides, the GI50 with U-251 is 4.49 µM (inactive); in the assay on SR it was 3.89 µM (inactive); in the assay on NCI-H522, 5.36 µM (inactive); with A549 it was > 25 µM (inactive); in the assay with SK-MEL-5, 9.57 µM (inactive); in the assay with RPMI-8226, 4.18 µM (inactive). Moreover, in the assay with HOP-62, the GI50 was > 25 µM (inactive).
As for `Cc1cc(OC(=O)Nc2ccc(Cl)cc2)ccc1C(=S)Nc1ccccc1`, the GI50 is > 100 µM (inactive) with HOP-92; 40.6 µM (inactive) with COLO 205; 26.3 µM (inactive) in the assay on HCC 2998; > 100 µM (inactive) in the assay on SNB-19; 8.93 µM (inactive) in the assay on KM12; > 100 µM (inactive) in the assay with SK-OV-3. In addition, the GI50 is 68.1 µM in the assay on HCT-15; 29.6 µM (inactive) with MOLT-4; 31.8 µM (inactive) in the assay with CAKI-1; 18.5 µM (inactive) with NCI-H460; 3.85 µM (inactive) in the assay on UACC-62; > 100 µM (inactive) in the assay with U-251. In addition, the GI50 with SR is 64.3 µM (inactive); with NCI-H522, 21.6 µM (inactive); with A549, 50.2 µM (inactive); in the assay on SK-MEL-5, 28 µM (inactive); in the assay with RPMI-8226, > 100 µM (inactive); with HOP-62, > 100 µM (inactive). Also, the GI50 in the assay with MDA-N is 71.3 µM (inactive).
In the case of `COc1cccc2c1C(=O)c1c(O)c3c(c(O)c1C2=O)C[C@H](O)C[C@@H]3OC1CC(N)C(O)C(C)O1` (some centres undefined), the GI50 with HOP-92 was 2 µM (inactive); with COLO 205, 0.508 µM (active); with DU-145, 1.76 µM (inactive); with SNB-19 it was 3.36 µM (inactive); in the assay with KM12 it was 0.811 µM (active); in the assay on SK-OV-3, 2.13 µM (inactive). Moreover, the GI50 in the assay on HCT-15 was 11.5 µM; in the assay on MOLT-4 it was < 0.01 µM (active); in the assay with CAKI-1 it was 1.08 µM (active); in the assay with NCI-H460, < 0.01 µM (active); in the assay with UACC-62, 0.255 µM (active); in the assay on SR, < 0.01 µM (active). In addition, the GI50 in the assay with NCI-H522 was 1.57 µM (inactive); with A549, 1.98 µM (inactive); in the assay on SK-MEL-5, 0.522 µM (active); with RPMI-8226 it was 1.22 µM (inactive); in the assay on HOP-62, 1.49 µM (inactive).
Regarding `CCc1n[nH]c(=O)n1CCCCCCCCCCCCn1c(CC)n[nH]c1=O`, the GI50 in the assay on HOP-92 is 37.1 µM (inactive); with COLO 205 it was 24.2 µM (inactive); in the assay on HCC 2998 it was 34.5 µM (inactive); with SNB-19, 39.7 µM (inactive); in the assay with KM12, 33.6 µM (inactive); in the assay with SK-OV-3, 62.4 µM (inactive). The GI50 in the assay on HCT-15 is 40.9 µM; in the assay with MOLT-4, 22.5 µM (inactive); in the assay on CAKI-1, 27.7 µM (inactive); in the assay with NCI-H460, 26.6 µM (inactive); with UACC-62 it was 18.3 µM (inactive); in the assay on U-251, 22 µM (inactive). In addition, the GI50 is 19.2 µM (inactive) in the assay on SR; 26.2 µM (inactive) in the assay on NCI-H522; 27.9 µM (inactive) with A549; 16.1 µM (inactive) in the assay with SK-MEL-5; 18.6 µM (inactive) in the assay on RPMI-8226; 56.6 µM (inactive) with HOP-62. Further, in the assay on MDA-N, the GI50 was 32.1 µM (inactive).
For `CCOC(OC1=C(C#N)CCCC1)C(CC)[Se]c1ccccc1` (centres undefined), the GI50 in the assay with HOP-92 was 25 µM (inactive); in the assay with COLO 205, 17.5 µM (inactive); with HCC 2998, 35.2 µM (inactive); with SNB-19 it was 39.9 µM (inactive); in the assay with KM12, > 100 µM (inactive); in the assay with SK-OV-3, > 100 µM (inactive). In addition, the GI50 in the assay on HCT-15 is 16.2 µM; in the assay on MOLT-4 it was 20.7 µM (inactive); in the assay on CAKI-1, 53.1 µM (inactive); in the assay with NCI-H460 it was 17.8 µM (inactive); in the assay on UACC-62, 13.7 µM (inactive); in the assay with U-251, 13 µM (inactive). Also, the GI50 with SR was 7.8 µM (inactive); with NCI-H522 it was 14.7 µM (inactive); in the assay on A549 it was 39.4 µM (inactive); in the assay on SK-MEL-5, 16.4 µM (inactive); with RPMI-8226 it was 16.2 µM (inactive); in the assay with HOP-62, 59.7 µM (inactive).
For `O=C(CSc1nc(-c2ccccc2)c(-c2ccccc2)[nH]1)NNC(=S)Nc1ccccc1`, the GI50 was 36.2 µM (inactive) in the assay with HOP-92; 61.7 µM (inactive) in the assay with COLO 205; > 100 µM (inactive) in the assay on HCC 2998; > 100 µM (inactive) in the assay on SNB-19; > 100 µM (inactive) in the assay with KM12; > 100 µM (inactive) in the assay on SK-OV-3. The GI50 with HCT-15 was over 100 µM; with MOLT-4, 33.7 µM (inactive); in the assay with CAKI-1 it was 81.7 µM (inactive); with NCI-H460, > 100 µM (inactive); in the assay on UACC-62, 0.277 µM (active); in the assay on U-251, > 100 µM (inactive). Also, the GI50 was 57.5 µM (inactive) in the assay on SR; 19.2 µM (inactive) with NCI-H522; > 100 µM (inactive) in the assay with A549; 46.1 µM (inactive) in the assay on SK-MEL-5; 27.6 µM (inactive) in the assay on RPMI-8226; > 100 µM (inactive) in the assay on HOP-62.
With `O=C1N(CN2CCOCC2)CN(CN2CCOCC2)C(=O)N1Cc1ccc(-c2ccc(CN3C(=O)N(CN4CCOCC4)CN(CN4CCOCC4)C3=O)cc2)cc1`, the GI50 is 9.46 µM (inactive) in the assay with HOP-92; > 21 µM (inactive) with COLO 205; 16.8 µM (inactive) with DU-145; 11 µM (inactive) in the assay on HCC 2998; 10.3 µM (inactive) with SNB-19; 4.73 µM (inactive) in the assay on KM12. Also, the GI50 in the assay with SK-OV-3 was 32.9 µM (inactive); in the assay on HCT-15 it was 9.55 µM; in the assay on MOLT-4 it was 4.19 µM (inactive); in the assay with CAKI-1, 14.2 µM (inactive); in the assay on NCI-H460, 15.9 µM (inactive); in the assay on UACC-62 it was 9.75 µM (inactive). For the same molecule, the GI50 was 16.1 µM (inactive) in the assay on U-251; 2.08 µM (inactive) in the assay with SR; 12.2 µM (inactive) in the assay with NCI-H522; 20.8 µM (inactive) in the assay with A549; > 19.7 µM (inactive) with SK-MEL-5; 21.6 µM (inactive) with HOP-62.
Consider `CCOC(OC1=C(C#N)CCC1)C(C)[Se]c1ccccc1` (centres undefined), for which the GI50 is 24.4 µM (inactive) with HOP-92; 27.5 µM (inactive) with COLO 205; 46.7 µM (inactive) with HCC 2998; 48.1 µM (inactive) in the assay with SNB-19; 92.9 µM (inactive) in the assay with KM12; > 100 µM (inactive) with SK-OV-3. For the same molecule, the GI50 was 15.9 µM in the assay with HCT-15; 18 µM (inactive) in the assay with MOLT-4; 59.7 µM (inactive) in the assay with CAKI-1; 36.4 µM (inactive) in the assay with NCI-H460; 18.5 µM (inactive) with UACC-62; 6.41 µM (inactive) with U-251. Further, the GI50 in the assay on SR is 11.6 µM (inactive); in the assay with NCI-H522, 13.5 µM (inactive); with A549, 67.8 µM (inactive); with SK-MEL-5, 15.8 µM (inactive); with RPMI-8226, 23.3 µM (inactive); in the assay with HOP-62, > 100 µM (inactive).
With `Cc1sc2nc(-c3cc([N+](=O)[O-])c(Cl)cc3Cl)c(/C=N/NC(=N)N)n2c1C`, the GI50 in the assay on HOP-92 was 7.13 µM (inactive); with DU-145, 14.5 µM (inactive); in the assay with HCC 2998, 2.34 µM (inactive); in the assay on KM12 it was 3.63 µM (inactive); in the assay with HCT-15, 3.61 µM; in the assay on MOLT-4, 1.62 µM (inactive). Further, the GI50 in the assay with CAKI-1 is 11.9 µM (inactive); in the assay with NCI-H460, 6.34 µM (inactive); in the assay with UACC-62, 14.7 µM (inactive); in the assay on U-251, 4.02 µM (inactive); in the assay on SR, 0.411 µM (active); with NCI-H522, 8.47 µM (inactive). Also, the GI50 in the assay with A549 is 22.9 µM (inactive); with SK-MEL-5, 6.3 µM (inactive); with RPMI-8226 it was 4.5 µM (inactive); with HOP-62 it was 7.66 µM (inactive).
Take `COc1ccc(CCNC(=O)[C@H]2CCCC[C@@H]2CCO)cc1OC`: the GI50 in the assay on HOP-92, in the assay with COLO 205, in the assay with DU-145, in the assay with HCC 2998, in the assay on SNB-19 and in the assay with KM12 was > 100 µM (inactive) throughout. The GI50 in the assay on SK-OV-3 was > 100 µM (inactive); in the assay with HCT-15, over 100 µM; with MOLT-4, > 100 µM (inactive); in the assay with CAKI-1 it was > 100 µM (inactive); in the assay with NCI-H460, > 100 µM (inactive); with UACC-62, > 100 µM (inactive). In addition, the GI50 with U-251, in the assay on SR, with NCI-H522, with A549, with SK-MEL-5 and in the assay on RPMI-8226 was > 100 µM (inactive) each time. Also, the GI50 with HOP-62 was > 100 µM (inactive).
